Several values for one entry are separate records, joined by “and”; a condition that tells them apart may be missing. Equal entries are not always repeated.
Key:
[1] = xn = mol fraction of the nth substance listed; conditions: 298.15 K, 101.3 kPa, Liquid, Vibrating tube method
[2] = refractive index (Na D-line) (dimensionless); xn = mol fraction of the nth substance listed; conditions: 298.15 K, 101.3 kPa, Liquid, Standard Abbe refractometry
[3] = relative permittivity at zero frequency (dimensionless); xn = mol fraction of the nth substance listed; conditions: 298.15 K, 101.3 kPa, Liquid, Coaxial cylinder capacitor
[4] = refractive index (Na D-line) (dimensionless); conditions: 298.15 K; 101.3 kPa; Liquid; Standard Abbe refractometry
[5] = relative permittivity at zero frequency (dimensionless); conditions: 298.15 K; 101.3 kPa; Liquid; Coaxial cylinder capacitor
[6] = 298.15 K; 101.3 kPa; Liquid; Vibrating tube method

O=C1CCCCC1 [cyclohexanone] + CCCCO
Conditions	mass density, [1] [kg/m3]	refractive index, [2]	relative permittivity at zero frequency, [3]
x2 = 0	942.47	1.4485	15.81
x2 = 0.1	932.83	1.4441	15.3
x2 = 0.2	922.35	1.4396	14.95
x2 = 0.3	910.57	1.4347	14.71
x2 = 0.4	897.77	1.4301	14.62
x2 = 0.5	883.98	1.4253	14.71
x2 = 0.6	869.51	1.4204	14.97
x2 = 0.7	854.54	1.4147	15.39
x2 = 0.8	838.96	1.4086	15.97
x2 = 0.9	822.78	1.4035	16.68

OC1CCCCC1 [cyclohexanol]
Conditions	refractive index	relative permittivity at zero frequency
[4]	1.4646	–
[5]	–	15.71

CCCCO [butan-1-ol] + O=C1CCCCC1
x1 = 1
Conditions	mass density [kg/m3]	refractive index	relative permittivity at zero frequency
[1]	805.92	–	–
[2]	–	1.3971	–
[3]	–	–	17.49

C1CCCCC1 [cyclohexane] + OC1CCCCC1
x2 = 0
Conditions	refractive index	relative permittivity at zero frequency
[2]	1.4235	–
[3]	–	2.021

O=C1CCCCC1 [cyclohexanone] + C1CCCCC1
Conditions	refractive index, [2]	relative permittivity at zero frequency, [3]
x1 = 0.02	1.4239	2.189
x1 = 0.04	1.4243	2.364
x1 = 0.05	1.4245	2.467
x1 = 0.06	1.4247	2.563
x1 = 0.08	1.4251	2.746
x1 = 0.1	1.4255 and 1.4254	2.932 and 3
x1 = 0.2	1.4276	4.12
x1 = 0.3	1.4298	5.35
x1 = 0.4	1.4322	6.66
x1 = 0.5	1.4347	8.03
x1 = 0.6	1.4372	9.45
x1 = 0.7	1.4399	10.94
x1 = 0.8	1.4427	12.49
x1 = 0.9	1.4456	14.11
x1 = 1	1.4485	15.81

OC1CCCCC1 [cyclohexanol] + C1CCCCC1
Conditions	refractive index, [2]	relative permittivity at zero frequency, [3]
x1 = 0.02	1.424	2.084
x1 = 0.04	1.4245	2.151
x1 = 0.05	1.4247	2.184
x1 = 0.06	1.425	2.219
x1 = 0.08	1.4255	2.285
x1 = 0.1	1.426	2.354

CCO [ethanol]
Conditions	mass density [kg/m3]	refractive index	relative permittivity at zero frequency
[4]	–	1.3594	–
[5]	–	–	24.37
[6]	785.26	–	–

O=C1CCCCC1 [cyclohexanone] + CCO
Conditions	mass density, [1] [kg/m3]	refractive index, [2]	relative permittivity at zero frequency, [3]
x2 = 0	942.47	1.4485	15.81
x2 = 0.1	938.01	1.4449	15.84
x2 = 0.2	930.92	1.4401	15.98
x2 = 0.3	921.48	1.4339	16.36
x2 = 0.4	910.02	1.4268	16.97
x2 = 0.5	896.25	1.4187	17.76
x2 = 0.6	879.92	1.4094	18.72
x2 = 0.7	860.95	1.3988	19.88
x2 = 0.8	839.21	1.3869	21.19
x2 = 0.9	814.29	1.3739	22.68

CCCCCCCCCCO [decan-1-ol]
Conditions	mass density [kg/m3]	refractive index	relative permittivity at zero frequency
[4]	–	1.4352	–
[5]	–	–	7.74
[6]	826.71	–	–

O=C1CCCC1 [cyclopentanone]
Conditions	refractive index	relative permittivity at zero frequency
[4]	1.4347	–
[5]	–	13.52

OC1CCCCC1 [cyclohexanol] + O=C1CCCCC1
Conditions	refractive index, [2]	relative permittivity at zero frequency, [3]
x1 = 0.1	1.4498	15.16
x1 = 0.2	1.4512	14.63
x1 = 0.3	1.4527	14.24
x1 = 0.4	1.4542	13.99
x1 = 0.5	1.4558	13.91
x1 = 0.6	1.4574	13.98
x1 = 0.7	1.4591	14.2
x1 = 0.8	1.4608	14.57
x1 = 0.9	1.4626	15.08
x1 = 1	1.4646	15.71

OC1CCCCC1 [cyclohexanol] + O=C1CCCC1
x1 = 1
Conditions	refractive index	relative permittivity at zero frequency
[2]	1.4646	–
[3]	–	15.71

CCCCO [butan-1-ol]
Conditions	mass density [kg/m3]	refractive index	relative permittivity at zero frequency
[4]	–	1.3971	–
[5]	–	–	17.49
[6]	805.92	–	–

O=C1CCCCC1 [cyclohexanone] + CCCCCCCCCCO
Conditions	mass density, [1] [kg/m3]	refractive index, [2]	relative permittivity at zero frequency, [3]
x2 = 0	942.47	1.4485	15.81
x2 = 0.1	922.31	1.4458	14.59
x2 = 0.2	904.8	1.4436	13.46
x2 = 0.3	889.41	1.4416	12.41
x2 = 0.4	875.85	1.4399	11.44
x2 = 0.5	863.79	1.4385	10.57
x2 = 0.6	853.13	1.4374	9.81
x2 = 0.7	843.78	1.4364	9.15
x2 = 0.8	836.26	1.4358	8.59
x2 = 0.9	830.72	1.4354	8.12

O=C1CCCC1 [cyclopentanone] + C1CCCCC1
Conditions	refractive index, [2]	relative permittivity at zero frequency, [3]
x1 = 0.1	1.4236	2.78
x1 = 0.2	1.4239	3.61
x1 = 0.3	1.4244	4.51
x1 = 0.4	1.4252	5.51
x1 = 0.5	1.4262	6.6
x1 = 0.6	1.4274	7.78
x1 = 0.7	1.4289	9.06
x1 = 0.8	1.4306	10.45
x1 = 0.9	1.4325	11.94
x1 = 1	1.4347	13.52

CCO [ethanol] + O=C1CCCCC1
x1 = 1
Conditions	mass density [kg/m3]	refractive index	relative permittivity at zero frequency
[1]	785.26	–	–
[2]	–	1.3594	–
[3]	–	–	24.37

CCCCCCO [hexan-1-ol]
Conditions	mass density [kg/m3]	refractive index	relative permittivity at zero frequency
[4]	–	1.4161	–
[5]	–	–	13.06
[6]	815.99	–	–

C1CCCCC1 [cyclohexane]
Conditions	refractive index	relative permittivity at zero frequency
[4]	1.4235	–
[5]	–	2.021 and 2.02

C1CCCCC1 [cyclohexane] + O=C1CCCC1
x2 = 0
Conditions	refractive index	relative permittivity at zero frequency
[2]	1.4235	–
[3]	–	2.02

CCCCCCCCO [octan-1-ol] + O=C1CCCCC1
x1 = 1
Conditions	mass density [kg/m3]	refractive index	relative permittivity at zero frequency
[1]	821.98	–	–
[2]	–	1.4276	–
[3]	–	–	9.85

CCCCCCO [hexan-1-ol] + O=C1CCCCC1
x1 = 1
Conditions	mass density [kg/m3]	refractive index	relative permittivity at zero frequency
[1]	815.99	–	–
[2]	–	1.4161	–
[3]	–	–	13.06

O=C1CCCCC1 [cyclohexanone] + CCCCCCO
Conditions	mass density, [1] [kg/m3]	refractive index, [2]	relative permittivity at zero frequency, [3]
x2 = 0	942.47	1.4485	15.81
x2 = 0.1	927.39	1.4444	14.93
x2 = 0.2	912.83	1.4405	14.2
x2 = 0.3	898.77	1.4367	13.59
x2 = 0.4	885.19	1.4332	13.13
x2 = 0.5	872.11	1.4299	12.79
x2 = 0.6	859.53	1.4267	12.58
x2 = 0.7	847.55	1.4237	12.5
x2 = 0.8	836.36	1.4209	12.57
x2 = 0.9	825.91	1.4184	12.76

O=C1CCCCC1 [cyclohexanone]
Conditions	mass density [kg/m3]	refractive index	relative permittivity at zero frequency
[4]	–	1.4485	–
[5]	–	–	15.81
[6]	942.47	–	–

O=C1CCCCC1 [cyclohexanone] + OC1CCCCC1
x2 = 0
Conditions	refractive index	relative permittivity at zero frequency
[2]	1.4485	–
[3]	–	15.81

O=C1CCCC1 [cyclopentanone] + OC1CCCCC1
Conditions	refractive index, [2]	relative permittivity at zero frequency, [3]
x2 = 0	1.4347	13.52
x2 = 0.1	1.4372	13.1
x2 = 0.2	1.4397	12.78
x2 = 0.3	1.4423	12.55
x2 = 0.4	1.445	12.42
x2 = 0.5	1.4479	12.43
x2 = 0.6	1.4509	12.61
x2 = 0.7	1.4541	12.99
x2 = 0.8	1.4575	13.59
x2 = 0.9	1.461	14.48

C1CCCCC1 [cyclohexane] + O=C1CCCCC1
x2 = 0
Conditions	refractive index	relative permittivity at zero frequency
[2]	1.4235	–
[3]	–	2.021 and 2.02

CCCCCCCCCCO [decan-1-ol] + O=C1CCCCC1
x1 = 1
Conditions	mass density [kg/m3]	refractive index	relative permittivity at zero frequency
[1]	826.71	–	–
[2]	–	1.4352	–
[3]	–	–	7.74

CCCCCCCCO [octan-1-ol]
Conditions	mass density [kg/m3]	refractive index	relative permittivity at zero frequency
[4]	–	1.4276	–
[5]	–	–	9.85
[6]	821.98	–	–

O=C1CCCCC1 [cyclohexanone] + CCCCCCCCO
Conditions	mass density, [1] [kg/m3]	refractive index, [2]	relative permittivity at zero frequency, [3]
x2 = 0	942.47	1.4485	15.81
x2 = 0.1	924.71	1.4456	14.72
x2 = 0.2	908.6	1.443	13.74
x2 = 0.3	893.85	1.4403	12.87
x2 = 0.4	880.35	1.438	12.12
x2 = 0.5	867.97	1.4358	11.47
x2 = 0.6	856.69	1.4338	10.93
x2 = 0.7	846.41	1.4319	10.5
x2 = 0.8	837.29	1.4303	10.18
x2 = 0.9	829.11	1.4289	9.97

— the NIST ThermoML archive (doi:10.1021/acs.jced.8b00755)
